In US20040023924A1, “Use of xyloglucan polymers and oligomers, and derivative compounds, as phytosanitary products and biofertilizers” (priority 2000, published 2004):

What was measured:
[1] = tested on: Rubus fruticosus protoplasts; assay: Elicitation of an oxidative burst: generation of H2O2 (pyranine quenching); type: cell-based; settings: 25° C.
Experimental: Preparation of Rubus fruticosus protoplasts according to Vargas-Rechia (1998). The protoplast yield is of the order of 70 to 85% of the initial number of cells used; the viability of the protoplasts, of the order of 90 to 95%, was checked using Evans blue indicator.
H2O2 assay according to Apostol et al. (1989). Incubation at different temperatures of 1.10^6 protoplasts in microplate wells in the presence of 2 μM pyranine λex 405 nm, λcm 512 nm), of the elicitor (0 to 100 μM): 2′-fucosyl-lactose (compound A), xyloglucan XXFGol, corresponding to the reduced form of fucosylated nonasaccharide of which the sugar X4 is in reduced form (compound B). The variations in pyranine fluorescence (ΔF512 min^−1) allow H2O2 assay.
Evaluation of the experimental data: The reaction rate is given by (ΔF512 min^−1). At least three kinetic curves are plotted per sample and per experimental condition. One point on the graph corresponds to the slope of the regression curve deduced from at least 6 kinetic curves.
The oxidative “burst” is evaluated according to the “quenching ” of the pyranine at 25° C.; the 100% reference value corresponds to the fluorescence in the controls (non-elicited protoplast suspensions)

vine = assay: Induction of cold resistance in the vine (cold protection index after foliar spraying); type: in vivo, vine (variety Chenin); settings: vine plants
Experimental: Plants originating from different vine varieties (Chenin, Grolleau, Carignan, Cabernet sauvignon, Cabernet Sauvignon, Pinot noir, Merlot, Chardonnay, Gamay etc.) are used for the study. Each sample, comprising 5 to 10 plants, is treated with foliar spraying at the end of the bud development (starting from vegetative stage 7 on the BBCH scale), or during the inflorescence development period (starting from vegetative stage 12) or at the start of flowering (as from stage 19), with the elicitor (oligomer: XXFG; derivative: 2′-fucosyl lactose) in solution at a variable dose (0.03 mg/l ≦dose≦3.3 mg/l; the spraying of 2.5 ml of solution per plant is carried out using a hand sprayer (deviation of +/−1%).
After treatment, the plants are exposed to cold stress of variable duration and intensity (for example, temperature varying from −2° C. to −5° C.; duration less than or equal to 240 minutes).
After exposure to the cold, the plants are placed in a climatic chamber at 20° C. with a 12-hour day/night alternation. […] The effects of the cold are evaluated by observing the foliar necroses induced by frost and the plants are kept for several months in order to monitor their subsequent development.
The proportion P (%) of foliar necroses observed 3 hours or 24 hours or 48 hours or 72 hours after the cold stress is counted, and the results are expressed by the protection index I=(100-P) %. […]

[2] = tested on: glutathione-reductase (EC 1.6. 4.2); assay: Elicitation of glutathione-reductase activity in protoplasts; type: cell-based, Rubus fruticosus L.; settings: for Optimal glutathione reductase elicitation response (100% = non-elicited controls): at the optimal dose
From the text: Preparation of Rubus fruticosus L. protoplasts according to Vargas-Rechia et al. (1998). The protoplast yield is of the order of 70 to 85% of the initial number of cells used; the viability of the protoplasts, of the order of 90 to 95%, was checked using Evans blue indicator.
Glutathione-reductase (GR) activity assay according to Jahnke L S et al. (1991):
GSSG (glutathione in oxidized form) is reduced to GSH (glutathione in reduced form) by the enzyme glutathione-reductase (EC 1.6. 4.2); the reaction is coupled with the oxidation of NADPH to NADP in the catalytic cycle (glutathione, glutathione-reductase, NADPH). The glutathione-reductase activity is measured by evaluating the formation of NADP in the medium, which is carried out by monitoring the absorbance reduction at 340 nm.
Test: 4.10^6 protoplasts in 1 ml of Tris-HCl buffer (pH 4.8) are incubated at 10° C., 15° C., 25° C. in the presence of the elicitor (0 to 100 μM): 2′-fucosyl lactose (compound A), xyloglucan XXFGol (compound B). After interaction for 10 minutes, an enzymatic extract is prepared according to Jahnke et al. (1991), and a 16.000 g aliquot of the supernatant (equivalent to 1 μg of proteins) is introduced into the pH 7.8 reaction medium (80 mM K2PO4, 500 μM GSSG, 150 μM NADPH, 200 μM DTPA) for the glutathione-reductase activity assay; the A340 recording is carried out for 1 minute using a Beckman D U 640 spectrophotometer.
Evaluation of the experimental data: The reaction rate is given by ΔA340 min^−1. At least three kinetic curves are plotted per experimental condition and per sample. One point on the graph corresponds to the value of the slope of the regression curve deduced from at least 6 kinetic curves.
The elicitation response is evaluated by measuring the formation of NADP at 340 nm. The 100% reference value corresponds to the NADP content in the controls (non-elicited protoplast suspensions).

How did the “Peroxide accumulation, effect of temperature” value ([1]; 10 nM, 20° C., 15° C., 10° C.) turn out when `C[C@@H]1O[C@@H](O[C@H]2[C@H](O[C@H]3[C@H](O)[C@@H](O)[C@H](O)O[C@@H]3CO)O[C@H](CO)[C@H](O)[C@@H]2O)[C@@H](O)[C@H](O)[C@@H]1O` [compound A, α-L-Fuc(1→2)β-D-Gal(1→4)β-D-Glc] was run?
The value was “lower at a low temperature”.

And the “Elicitor dose of optimal response, generation of H2O2” value ([1]; pyranine quenching)?
The value was 10 nM.

And the “Optimal response, generation of H2O2 (100% = non-elicited controls)” value ([1]; at the optimal dose)?
Its value is 225%.

And the “Cold-resistance-inducer effect, efficiency compared with XXFG” value (vine)?
Its value is “equal or slightly lower efficiency”.

And the “Elicitor dose of optimal glutathione reductase elicitation response” value ([2]; 10° C.)?
The value was 25 nM.

What about the “Optimal glutathione reductase elicitation response (100% = non-elicited controls)” value ([2]; 10° C.) of the same compound?
Its value is 2500%.

And the “Elicitor dose of optimal glutathione reductase elicitation response” value ([2]; 15° C.)?
The value was 100 nM.

What about the “Optimal glutathione reductase elicitation response (100% = non-elicited controls)” value ([2]; 15° C.) of the same compound?
Its value is 780%.

What about the “Glutathione reductase elicitation response” value ([2]; 25° C.) of the same compound?
The value was “no significant response”.
